From patent US9381142B2, “Olfactory adaptation and cross-adapting agents to reduce the perception of body odors” (Monell Chemical Senses Center, priority 2002, dated 2016)

Legend:
[1] = system: female stress-derived axillary odor; assay: Cross-adaptation of female stress-derived axillary odor (odor panel, magnitude estimation of perceived intensity); format: in vivo, human; settings: for Magnitude of Reduction of Intensity of Female Stress-Derived Odor (FSDO), Males: female stress-derived odor perceived by men; for Magnitude of Reduction of Intensity of Female Stress-Derived Odor (FSDO), Females: female stress-derived odor perceived by women
Excerpt: (§1) The procedure relies upon an individual constantly sniffing an adapting agent, such as a fragrance, and occasionally a test odorant. Perceived intensity of the test odorant is obtained by using psychophysical, magnitude-estimation procedures. These perceived intensities are obtained every 30 seconds over the test period, and are then compared with baseline perceived intensities obtained before the individual began sniffing the adapting agent. Throughout the testing we observe adaptation to the adapting agent. Results during trials with an inserted test odorant, such as the axillary odor used here, are believed to be reasonably predictive. If the perceived intensity of the test odorant decreases during the test, then the adapting agent cross-adapts the test odorant and becomes a cross-adapting agent. If the cross-adapting agent is itself not offensive, then the cross-adapting agent becomes a candidate for use in formulations in consumer products to ameliorate malodors, such as axillary odor or fecal/urine odors, and odors related to the female menstrual cycle.
(§2) Collection of secretions: Apocrine secretions obtained under stressed conditions provided the axillary odor that was used as the test odorant to evaluate the effectiveness of various adapting agents. Secretions were obtained from males (ages 20 to 60 years) and females (ages 20 to 40 years) in good health. […] Volunteers prepared their axillae for collection of apocrine secretions by refraining from deodorant use for 3 days and shaving their axillae the morning of the collection day.
(§3) Volunteers were rested in a supine position. The axillary regions were washed with isopropanol-soaked pads and injected intradermally with 1:10,000 adrenalin (in physiologic saline). This injection stimulated the secretion of apocrine gland secretions, which were collected in 10 μl pipettes, passed into 0.25 ml Eppendorf tubes, and stored on ice (or frozen for longer storage). The amount of secretion collected varied greatly with the individual subject (≦10 μl). The apocrine secretions from each volunteer were combined by consecutively washing each Eppendorf tube with 2×300 μl of doubly distilled water. This aqueous-apocrine fluid was transferred to a 5 ml round-bottomed flask for hydrolysis. X-N. Zeng, J. J. Leyden, J. G. Brand, A. I. Spielman, K. J. McGinley, G. Preti, An Investigation of Human Apocrine Gland Secretion for Axillary Odor Precursors, 18 J. Chem. Ecol. 1039-1055 (1992); X-N. Zeng, J. J. Leyden, A. I. Spielman and G. Preti Analysis of the characteristic human female axillary odors: Qualitative comparison to males. 22 J. Chem. Ecol. 237-257 (1996).
(§4) Production of odor: To produce quantities of stress-derived axillary odor for testing purposes, we hydrolyzed the apocrine secretion. The aqueous solution was refluxed for 20 min with 0.5 ml, 5% aqueous sodium hydroxide under a stream of nitrogen. The mixture was allowed to cool to room temperature, and then it was cooled in ice prior to being acidified with 6 N HCl to pH 2. The resulting axillary odor developed in the reaction mixture upon acidification was used as the test odorant. The axillary odors generated by this in vitro technique are analogous to the malodors produced by stressed individuals.
A separate panel of 24 subjects (12 males and 12 females) tested samples of female stress-derived axillary odor with potential cross-adapting agents, some of which were not included in Example 1 above. Some of the subjects assessing the effectiveness of cross-adaptation of male stress-derived axillary odor were also used in the experiment with female secretions. However, these two experiments were treated as independent events. All panel members were screened for adequate use of magnitude estimation and further trained in its use during two to three training sessions. […]

[2] = system: male stress-derived axillary odor; assay: Cross-adaptation of male stress-derived axillary odor (odor panel, magnitude estimation of perceived intensity); format: in vivo, human; settings: for Magnitude of Reduction of Intensity of Male Stress-Derived Odor (MSDO), Males: male stress-derived odor perceived by men; for Magnitude of Reduction of Intensity of Male Stress-Derived Odor (MSDO), Females: male stress-derived odor perceived by women
Excerpt: as §1, §2, §3, §4
Sixteen (16) individuals (8 of each gender) served on an odor panel. Subjects ranged in age from 22 to 55 years (mean 32.7±10.6 s.d.), were not pregnant (by verbal report), and were all non-smokers. All panel members were screened for adequate use of magnitude estimation (some people have difficulties maintaining a ratio scale, i.e., when an odorant is half as strong as the previous, these people fail to provide a number that is half the previous estimate) and further trained in its use during 2-3 training sessions. All 16 subjects were tested with samples of male malodor compared to each of the potential cross-adapting agents. […]
Further: key: best: Best = Superior Cross-Adaptation; good: Good = Adequate Cross-Adaptation; poor: Poor = Ineffective Cross-Adaptation.

Compound | Magnitude of Reduction of Intensity of Female Stress-Derived Odor (FSDO), Males [1] | Magnitude of Reduction of Intensity of Female Stress-Derived Odor (FSDO), Females [1] | Magnitude of Reduction of Intensity of Male Stress-Derived Odor (MSDO), Males [2] | Magnitude of Reduction of Intensity of Male Stress-Derived Odor (MSDO), Females [2]
COC(=O)c1c(C)cc(O)c(C)c1O [Evernyl, methyl 2,4-dihydroxy-3,6-dimethylbenzoate] | poor | good | – | –
l-carvone | good | best | best | best
CC(C=O)Cc1ccc(C(C)(C)C)cc1 (stereo not drawn) [Lilial, 4-(1,1-dimethylethyl)-alpha-methylbenzenepropanal] | good | poor | – | –
C=CCc1ccc(O)c(OC)c1 [Eugenol, 2-methoxy-1-hydroxy-4-allylbenzene] | good | good | best | poor
CCC(=CCC1CC=C(C)C1(C)C)CO (stereo not drawn) [Sandranol ®, 2-ethyl-4-(2,2,3-trimethyl-3-cyclopenten-1-yl)-2-buten-1-ol] | good | good | good | poor
CCCCCCOC(=O)c1ccccc1O [Hexyl Salicylate, hexyl-2-hydroxybenzoate] | poor | good | poor | poor
CC(=O)C=CC1C(C)=CCCC1(C)C (stereo not drawn) [α-ionone, 4-(2,2,6-trimethyl-2cyclohexen-1-yl)-3-buten-2-one] | good | good | – | –
Cc1cccc(CC(C)(C)CO)c1 [MAJANTOL ®, 2,2-dimethyl-3-(methylphenyl)propanol] | good | poor | – | –
CCC(C)(O)CCCC(C)C (stereo not drawn) [Tetrahydro Linalool, 3,7-Dimethyloctan-3-ol] | – | – | best | poor
O=C1CCCCCCCCCCCCCCO1 [cpd Supra, oxacyclohexadecan-2-one] | good | good | poor | poor
C/C=C/C(=O)OC(C)C1CCCCC1 (stereo not drawn) [Datilat, Cyclohexyl methyl carbinol crotonate] | – | – | poor | poor
CCCCCCC(C=O)=Cc1ccccc1 [Hexylcinnamic Aldehyde, alpha-hexylcinnamaldehyde] | good | poor | good | good
CC(C)=CC1CC(C)CCO1 (stereo not drawn) [Rose Oxide hc, 4-methyl-2-(2-methyl-1-propenyl)tetrahydro-2H-pyran] | good | good | poor | good
CC(CO)CCCc1ccccc1 (stereo not drawn) [Rosaphen ®, 2-methyl-5-phenylpentan-1-ol] | good | poor | best | poor
CC=CC(=O)C1C(C)C=CCC1(C)C (stereo not drawn) [Δ-Damascone, 1-(2,6,6-trimethyl-3-cyclohexen-1-yl)-2-buten-1-one] | – | – | best | good
isobornyl cyclohexanol | – | – | good | poor
COC(C=C(C)CCC=C(C)C)OC [Citrylal, Octa-2,6-dien; 1,1-dimethoxy-3-7-dimethyl] | – | – | best | good
CC(O)C(C)CC1C(C)CCCC1(C)C (stereo not drawn) [Timbranol, Isomethyltetrahydroionol] | – | – | poor | poor
CC(=O)c1oc2ccccc2c1C [Nerolione, 1-(3-bethyl-2-benzofuranyl)-ethanone] | – | – | good | poor
COc1ccc(C=O)cc1 [Anisic Aldehyde, 4-methoxybenzaldehyde] | best | good | – | –
Cc1ccc2c(c1)OCC(=O)CO2 [Calone 1951, 7-methyl-314-dihydro-2H-1,5-benzodioxepin-3-one] | good | good | – | –
CC(C)C1CCC(C(C)O)CC1 (stereo not drawn) [Mugetanol, 1-(4-isopropylcyclohexyl)ethanol] | – | – | good | poor
alpha-n-methylionone [Isoraldeine 70] | best | poor | – | –
CCCCCC(C)=CC(=O)OCC [E-isomer of 3-methyl-2-octenoic acid ethyl ester, 3-methyl-2-octenoic acid ethyl ester] | good | poor | – | –
CC(=O)c1cc2c(cc1C)C(C)(C)C(C)CC2(C)C (stereo not drawn) [Tonalide, 7-Acetyl-1,1,3,4,4,6-hexamethyltetralin] | – | – | good | poor
CCOc1cc(C=O)ccc1O [Ethyl Vanillin, 3-Ethoxy-4-hydroxybenzaldehyde] | best | poor | – | –
O=C1CCCC=CCCCCCCCCCC1 [GLOBANONE ®, cyclohexadecen-5-one-1] | good | poor | – | –
CC(C)(O)CCCC1=CCC(C=O)CC1 (stereo not drawn) [Lyral, 4-(4-hydroxy-4-methylpentyl)-3-cyclohexenE-1-carboxaldehyde] | good | poor | – | –
